According to ChEMBL document CHEMBL5113487, “Novel anilinopyrimidine derivatives as potential EGFRT790M/C797S Inhibitors: Design, Synthesis, biological activity study” (Bioorg Med Chem, 2022):
Active and inactive are the calls of the source. No cut-off for these calls is given here.

What was measured:
BaF3 [1] = assay: Antiproliferative activity against mouse BaF3 cells harboring del18/T790M/C797S triple mutant assessed as cell growth inhibition incubated for 72 hrs by cell titre glo luminescence assay; assay type: functional, cell-based; settings: BaF3, 72 h
A-431 = assay: Antiproliferative activity against human A-431 cells assessed as cell growth inhibition incubated for 72 hrs by cell titre glo luminescence assay; assay type: functional, cell-based; settings: A-431, 72 h
BaF3 [2] = assay: cells; settings: Mus musculus, BaF3, 72 h
[3] = MRT in mouse at 5 mg/kg measured upto 24 hrs by LC-MS/MS analysis; assay type: ADME, organism-based; settings: in vivo
[4] = Antitumor activity against patient-derived human […] cells xenografted in mouse assessed as tumor weight at 40 mg/kg, po administered once a day for 28 days relative to control; assay type: functional, LD1-0025-200717; settings: time 28 day
[5] = biological target: Epidermal growth factor receptor (Homo sapiens, UniProt P00533, C797S/EX18DEL/T790M); assay: Inhibition of EGFR del18/T790M/C797S triple mutant (unknown origin) using TK as substrate incubated for 120 mins in the presence of ATP by HTRF assay
[6] = AUC(0 to infinity) in mouse at 5 mg/kg measured upto 24 hrs by LC-MS/MS analysis; assay type: ADME, organism-based; parameters: dose 5 mg/kg, time < 24 hrs; settings: in vivo
[7] = Toxicity in Sprague-Dawley rat assessed as effect on body weight at 3 to 7.5 mg/kg, po administered once a day for 4 weeks and measured 4 weeks post recovery period; assay type: organism-based; settings: in vivo, 1344 h, dose 3-7.5 mg/kg, time 8 weeks
CDK6/cyclin D3 = CDK6/cyclin D3 (Homo sapiens, UniProt Q00534); assay: Inhibition of CDK6/cyclin-D3 (unknown origin); assay type: protein-complex assay
CDK9/cyclin T1 = CDK9/cyclin T1 (Homo sapiens, UniProt P50750); assay: Inhibition of CDK9/Cyclin T1 (unknown origin); assay type: protein-complex assay
BaF3 [8] = assay: Antitumor activity against mouse BaF3 cells harboring EGFR del18/T790M/C797S triple mutant implanted in Balb/c nude mouse assessed as tumor growth inhibition at 40 mg/kg, po administered once a day for 14 days relative to control; assay type: functional; settings: BaF3, 336 h, time 14 day, read-out: TGI
[9] = biological target: Mitogen-activated protein kinase 14 (Homo sapiens, UniProt Q16539); assay: Inhibition of P38alpha (unknown origin)
[10] = biological target: Epidermal growth factor receptor (Homo sapiens, UniProt P00533); assay: In vivo inhibition of EGFR phosphorylation in nude mouse implanted with mouse BaF3 cells harboring EGFR del18/T790M/C797S triple mutant at 20 mg/kg, po administered as single dose and measured upto 24 hrs by Western blot analysis
BaF3 [11] = assay: In vivo inhibition of ERK phosphorylation in nude mouse implanted with mouse BaF3 cells harboring EGFR del18/T790M/C797S triple mutant at 20 mg/kg, po administered as single dose and measured upto 24 hrs by Western blot analysis; assay type: organism-based
[12] = Antitumor activity against patient-derived human […] cells xenografted in mouse assessed as tumor growth inhibition at 20 mg/kg, po administered once a day for 28 days relative to control; assay type: functional; settings: LD1-0025-200717, 672 h, time 28 day, read-out: TGI
[13] = biological target: Epidermal growth factor receptor (Homo sapiens, UniProt P00533, C797S/L858R/T790M); assay: Inhibition of EGFR L858R/T790M/C797S triple mutant (unknown origin) using TK as substrate incubated for 120 mins in the presence of ATP by HTRF assay
[14] = AUC(0 to t) in mouse at 5 mg/kg measured upto 24 hrs by LC-MS/MS analysis; assay type: ADME, organism-based; parameters: time < 24 hrs, dose 5 mg/kg; settings: in vivo
[15] = Toxicity in Sprague-Dawley rat assessed as animal death at 3 to 15 mg/kg, po administered once a day for 4 weeks and measured 4 weeks post recovery period; assay type: organism-based; settings: in vivo, 1344 h, dose 3-15 mg/kg, time 8 weeks
BaF3 [16] = assay: Antitumor activity against mouse BaF3 cells harboring EGFR del18/T790M/C797S triple mutant implanted in Balb/c nude mouse assessed as tumor growth inhibition at 30 mg/kg, po administered once a day for 14 days relative to control; assay type: functional; settings: BaF3, 336 h, time 14 day, read-out: TGI
[17] = Drug distribution in brain of nude mouse implanted with mouse BaF3 cells harboring EGFR del18/T790M/C797S triple mutant at 20 mg/kg, po administered as single dose and measured upto 24 hrs; assay type: ADME, organism-based; settings: in vivo
[18] = Inhibition of ABL (unknown origin); parameters: species or system Homo sapiens
[19] = Toxicity in orally dosed Sprague-Dawley rat assessed as maximum tolerated dose administered once a day for 4 weeks and measured 4 weeks post recovery period; assay type: organism-based; settings: in vivo, route po, time 8 weeks
BaF3 [20] = assay: Antitumor activity against mouse BaF3 cells harboring EGFR del18/T790M/C797S triple mutant implanted in Balb/c nude mouse assessed as tumor growth inhibition at 15 mg/kg, po administered once a day for 14 days relative to control; assay type: functional; settings: BaF3, 336 h, time 14 day, read-out: TGI
BaF3 [21] = assay: Antitumor activity against mouse BaF3 cells harboring EGFR del18/T790M/C797S triple mutant implanted in Balb/c nude mouse assessed as tumor weight at 30 mg/kg, po administered once a day for 14 days; assay type: functional; settings: time 14 day
[22] = biological target: Serine/threonine-protein kinase B-raf (Homo sapiens, UniProt P15056); assay: Inhibition of BRAF (unknown origin)
[23] = biological target: Phosphatidylinositol 4,5-bisphosphate 3-kinase catalytic subunit alpha isoform (Homo sapiens, UniProt P42336); assay: Inhibition of PI3Kalpha (unknown origin)
[24] = Half-life in mouse at 5 mg/kg measured upto 24 hrs by LC-MS/MS analysis; assay type: ADME, organism-based; settings: in vivo
BaF3 [25] = assay: Antitumor activity against mouse BaF3 cells harboring EGFR del18/T790M/C797S triple mutant implanted in Balb/c nude mouse assessed as tumor weight at 40 mg/kg, po administered once a day for 14 days; assay type: functional; settings: time 14 day
[26] = Toxicity in Sprague-Dawley rat assessed as body weight gain during recovery period at 15 mg/kg, po administered once a day for 4 weeks and measured 4 weeks post recovery period; assay type: organism-based; settings: in vivo, 1344 h, time 8 weeks
PC-9 [27] = assay: Antitumor activity against human PC-9 cells harboring EGFR del18/T790M/C797S triple mutant xenografted in NOD/SCID mouse assessed as tumor growth inhibition at 40 mg/kg, po administered once a day for 21 days relative to control; assay type: functional; settings: PC-9, 504 h, time 21 day, read-out: TGI
[28] = Drug distribution in tumor of nude mouse implanted with mouse BaF3 cells harboring EGFR del18/T790M/C797S triple mutant at 15 to 45 mg/kg, po administered as single dose and measured after 4 hrs; assay type: ADME, organism-based, Neoplasm; settings: in vivo, dose 15-45 mg/kg
[29] = biological target: RAC-gamma serine/threonine-protein kinase (Homo sapiens, UniProt Q9Y243); assay: Inhibition of AKT3 (unknown origin)
[30] = Drug distribution in plasma of nude mouse implanted with mouse BaF3 cells harboring EGFR del18/T790M/C797S triple mutant at 15 to 45 mg/kg, po administered as single dose and measured after 4 hrs; assay type: ADME, organism-based; settings: in vivo, dose 15-45 mg/kg
[31] = Acute toxicity in Sprague-Dawley rat assessed as biological changes in clinical pathology at 15 to 60 mg/kg, IG administered as single dose and measured after 14 days; assay type: organism-based; settings: in vivo, po, 336 h, dose 15-60 mg/kg, time 14 day
[32] = Cmax in mouse at 5 mg/kg measured upto 24 hrs by LC-MS/MS analysis; assay type: ADME, organism-based; parameters: time < 24 hrs, dose 5 mg/kg; settings: in vivo
[33] = Antitumor activity against patient-derived human […] cells xenografted in mouse assessed as tumor weight at 20 mg/kg, po administered once a day for 28 days relative to control; assay type: functional, LD1-0025-200717; settings: time 28 day
BaF3 [34] = assay: Antitumor activity against mouse BaF3 cells harboring EGFR del18/T790M/C797S triple mutant implanted in Balb/c nude mouse assessed as tumor weight at 15 mg/kg, po administered once a day for 14 days; assay type: functional; settings: time 14 day
PC-9 [35] = assay: Antitumor activity against human PC-9 cells harboring EGFR del18/T790M/C797S triple mutant xenografted in NOD/SCID mouse assessed as tumor growth inhibition at 30 mg/kg, po administered once a day for 21 days relative to control; assay type: functional; settings: PC-9, 504 h, time 21 day, read-out: TGI
PC-9 [36] = assay: Antitumor activity against human PC-9 cells harboring EGFR del18/T790M/C797S triple mutant xenografted in NOD/SCID mouse assessed as tumor growth inhibition at 15 mg/kg, po administered once a day for 21 days relative to control; assay type: functional; settings: PC-9, 504 h, time 21 day, read-out: TGI
[37] = Drug distribution in tumor of nude mouse implanted with mouse BaF3 cells harboring EGFR del18/T790M/C797S triple mutant at 20 mg/kg, po administered as single dose and measured upto 24 hrs; assay type: ADME, organism-based, Neoplasm; settings: in vivo
[38] = Antitumor activity against patient-derived human […] cells xenografted in mouse assessed as tumor growth inhibition at 40 mg/kg, po administered once a day for 28 days relative to control; assay type: functional; settings: LD1-0025-200717, 672 h, time 28 day, read-out: TGI

Sequence of Epidermal growth factor receptor (Homo sapiens, UniProt P00533, C797S/L858R/T790M) (P00533 25-1210 T790M/C797S/L858R limits assumed): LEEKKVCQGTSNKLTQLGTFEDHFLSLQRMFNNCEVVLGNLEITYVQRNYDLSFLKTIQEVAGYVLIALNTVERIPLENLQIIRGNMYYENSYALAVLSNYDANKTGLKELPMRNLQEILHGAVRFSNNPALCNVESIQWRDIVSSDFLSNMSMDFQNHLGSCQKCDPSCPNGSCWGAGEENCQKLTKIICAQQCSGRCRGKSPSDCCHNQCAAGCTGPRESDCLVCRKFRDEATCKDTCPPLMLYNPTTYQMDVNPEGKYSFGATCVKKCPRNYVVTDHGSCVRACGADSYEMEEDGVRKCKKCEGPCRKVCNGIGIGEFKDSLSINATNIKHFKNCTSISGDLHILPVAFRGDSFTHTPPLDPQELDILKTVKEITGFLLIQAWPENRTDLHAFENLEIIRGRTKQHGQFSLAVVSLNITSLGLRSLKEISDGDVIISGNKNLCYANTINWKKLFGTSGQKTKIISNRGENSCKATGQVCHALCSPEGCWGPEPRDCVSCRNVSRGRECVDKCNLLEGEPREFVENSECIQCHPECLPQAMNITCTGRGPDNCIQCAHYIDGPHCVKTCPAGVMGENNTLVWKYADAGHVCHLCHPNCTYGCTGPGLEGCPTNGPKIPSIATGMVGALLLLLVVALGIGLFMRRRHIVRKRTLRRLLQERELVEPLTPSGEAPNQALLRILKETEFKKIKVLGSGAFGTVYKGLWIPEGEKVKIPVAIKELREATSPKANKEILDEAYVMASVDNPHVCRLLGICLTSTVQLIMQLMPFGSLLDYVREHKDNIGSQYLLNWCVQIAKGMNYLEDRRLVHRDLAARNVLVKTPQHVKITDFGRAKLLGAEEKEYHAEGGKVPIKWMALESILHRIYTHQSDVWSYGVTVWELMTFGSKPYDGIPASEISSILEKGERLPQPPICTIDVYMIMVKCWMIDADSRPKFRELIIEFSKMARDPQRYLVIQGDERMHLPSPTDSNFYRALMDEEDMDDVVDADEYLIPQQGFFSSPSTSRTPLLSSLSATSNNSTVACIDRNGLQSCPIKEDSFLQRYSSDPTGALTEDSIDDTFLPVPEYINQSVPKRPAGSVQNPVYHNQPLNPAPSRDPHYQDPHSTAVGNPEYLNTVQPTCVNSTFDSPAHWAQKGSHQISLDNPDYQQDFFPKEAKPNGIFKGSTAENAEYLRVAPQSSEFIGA
Sequence of Epidermal growth factor receptor (Homo sapiens, UniProt P00533, C797S/EX18DEL/T790M) (P00533 whole entry, looked up, stated change not applied): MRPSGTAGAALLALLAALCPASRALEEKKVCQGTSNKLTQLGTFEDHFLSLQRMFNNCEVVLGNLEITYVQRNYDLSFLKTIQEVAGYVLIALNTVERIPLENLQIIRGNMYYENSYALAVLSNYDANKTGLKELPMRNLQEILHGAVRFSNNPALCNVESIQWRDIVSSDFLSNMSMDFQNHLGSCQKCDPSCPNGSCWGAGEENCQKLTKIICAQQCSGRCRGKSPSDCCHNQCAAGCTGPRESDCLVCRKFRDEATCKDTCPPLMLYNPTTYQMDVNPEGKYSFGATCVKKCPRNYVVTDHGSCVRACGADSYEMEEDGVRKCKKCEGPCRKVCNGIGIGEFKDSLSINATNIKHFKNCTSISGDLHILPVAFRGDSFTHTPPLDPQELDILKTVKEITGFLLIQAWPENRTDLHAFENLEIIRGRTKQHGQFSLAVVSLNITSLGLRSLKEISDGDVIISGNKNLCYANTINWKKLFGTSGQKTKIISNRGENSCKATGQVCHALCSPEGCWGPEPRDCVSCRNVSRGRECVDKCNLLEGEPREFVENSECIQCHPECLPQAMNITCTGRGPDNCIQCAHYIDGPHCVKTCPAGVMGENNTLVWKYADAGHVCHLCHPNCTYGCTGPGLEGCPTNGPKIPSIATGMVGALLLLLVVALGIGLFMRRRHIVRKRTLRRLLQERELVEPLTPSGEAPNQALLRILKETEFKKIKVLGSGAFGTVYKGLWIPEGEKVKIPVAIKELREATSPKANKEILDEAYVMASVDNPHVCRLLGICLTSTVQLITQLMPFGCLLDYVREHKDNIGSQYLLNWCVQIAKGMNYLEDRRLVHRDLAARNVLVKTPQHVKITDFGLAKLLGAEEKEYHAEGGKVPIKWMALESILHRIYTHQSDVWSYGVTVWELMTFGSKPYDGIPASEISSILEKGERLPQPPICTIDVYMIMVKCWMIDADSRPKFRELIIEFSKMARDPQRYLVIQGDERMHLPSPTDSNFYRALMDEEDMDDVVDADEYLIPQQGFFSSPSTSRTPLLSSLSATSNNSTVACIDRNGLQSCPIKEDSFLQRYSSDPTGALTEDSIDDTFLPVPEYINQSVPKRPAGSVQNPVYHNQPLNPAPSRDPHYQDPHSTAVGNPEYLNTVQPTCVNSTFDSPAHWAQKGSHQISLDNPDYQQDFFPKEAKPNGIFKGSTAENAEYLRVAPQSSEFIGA
Sequence of Epidermal growth factor receptor (Homo sapiens, UniProt P00533) (P00533 whole entry, looked up): as the sequence (P00533 whole entry, looked up, stated change not applied) above
Sequence of Mitogen-activated protein kinase 14 (Q16539 whole entry): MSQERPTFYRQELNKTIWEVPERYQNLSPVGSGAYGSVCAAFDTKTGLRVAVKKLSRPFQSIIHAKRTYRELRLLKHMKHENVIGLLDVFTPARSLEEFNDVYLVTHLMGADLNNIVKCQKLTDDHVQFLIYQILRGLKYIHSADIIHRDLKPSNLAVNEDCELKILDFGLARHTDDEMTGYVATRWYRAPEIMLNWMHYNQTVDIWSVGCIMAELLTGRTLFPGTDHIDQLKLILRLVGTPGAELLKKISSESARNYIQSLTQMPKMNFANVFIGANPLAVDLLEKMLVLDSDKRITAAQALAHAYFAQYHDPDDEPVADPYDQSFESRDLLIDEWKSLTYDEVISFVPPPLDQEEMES
Sequence of Serine/threonine-protein kinase B-raf (P15056 whole entry, canonical isoform): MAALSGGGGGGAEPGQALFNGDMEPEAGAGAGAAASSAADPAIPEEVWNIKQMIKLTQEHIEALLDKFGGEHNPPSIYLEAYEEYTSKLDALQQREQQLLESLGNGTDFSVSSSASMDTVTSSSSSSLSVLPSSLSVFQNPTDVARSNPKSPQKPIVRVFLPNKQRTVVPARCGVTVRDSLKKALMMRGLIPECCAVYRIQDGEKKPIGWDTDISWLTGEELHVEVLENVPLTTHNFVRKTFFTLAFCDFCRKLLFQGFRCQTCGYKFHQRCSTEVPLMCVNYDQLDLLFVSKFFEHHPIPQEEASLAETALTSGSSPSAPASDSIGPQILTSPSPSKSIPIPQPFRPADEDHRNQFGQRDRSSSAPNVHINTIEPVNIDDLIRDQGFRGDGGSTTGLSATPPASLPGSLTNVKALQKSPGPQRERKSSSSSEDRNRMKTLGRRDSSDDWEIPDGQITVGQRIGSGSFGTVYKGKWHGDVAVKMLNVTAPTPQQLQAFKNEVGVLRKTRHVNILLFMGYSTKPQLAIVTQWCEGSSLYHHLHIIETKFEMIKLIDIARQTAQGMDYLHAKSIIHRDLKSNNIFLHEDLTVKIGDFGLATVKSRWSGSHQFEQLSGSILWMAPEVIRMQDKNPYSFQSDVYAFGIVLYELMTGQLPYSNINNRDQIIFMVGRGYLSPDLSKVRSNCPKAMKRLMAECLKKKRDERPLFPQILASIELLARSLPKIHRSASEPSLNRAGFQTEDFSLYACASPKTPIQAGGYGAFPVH

## COc1cc(N2CCC(N3CCN(C)CC3)CC2)ccc1Nc1ncc(Cl)c(Nc2ccccc2P(C)(C)=O)n1 [BRIGATINIB]
BaF3 [1]
  IC50: 433 nM
A-431
  IC50: 709 nM
BaF3 [2]
  IC50: < 100 nM

## COCC1CN(C2CCN(c3cc(OC)c(Nc4ncc(Br)c(Nc5ccc6c(c5P(C)(C)=O)OCCO6)n4)cc3C)CC2)C1
[3]
  MRT: 4.7 h
[4]
  Activity: 0.38 g
[5]
  IC50: 0.31 nM
[6]
  AUC(0-inf): 11600 ng·h/mL
BaF3 [1]
  IC50: 14 nM
[7]
  Activity: Non-Toxic
CDK6/cyclin D3
  IC50: > 10000 nM
CDK9/cyclin T1
  IC50: 4080 nM
BaF3 [8]
  inhibition in vivo at 40 mg/kg: 90.3%
[9]
  IC50: > 10000 nM
[10]
  inhibition: Active
BaF3 [11]
  inhibition: Active
[12]
  inhibition in vivo at 20 mg/kg: 58.4%
[13]
  IC50: 0.09 nM
[14]
  AUC(0-t) at 24 h: 11600 ng·h/mL
[15]
  Activity: Non-Toxic
BaF3 [16]
  inhibition in vivo at 30 mg/kg: 82.6%
[17]
  Drug uptake: Active
[18]
  IC50: 86 nM
[19]
  MTD at 1344 h: 15 mg/kg
BaF3 [20]
  inhibition in vivo at 15 mg/kg: 48.4%
BaF3 [21]
  Activity: 0.319 g
[22]
  IC50: > 10000 nM
[23]
  IC50: > 10000 nM
[24]
  half-life: 2.9 h
BaF3 [25]
  Activity: 0.161 g
[26]
  Activity: Toxic
PC-9 [27]
  inhibition in vivo at 40 mg/kg: 68.8%
[28]
  Drug uptake: Active
[29]
  IC50: > 10000 nM
[30]
  Drug uptake: Active
[31]
  Activity: Non-Toxic
[32]
  Cmax: 1990 ng/mL
[33]
  Activity: 0.475 g
BaF3 [34]
  Activity: 0.653 g
PC-9 [35]
  inhibition in vivo at 30 mg/kg: 47.2%
PC-9 [36]
  inhibition in vivo at 15 mg/kg: 22%
[37]
  Drug uptake: Active
[38]
  inhibition in vivo at 40 mg/kg: 67.4%
